Drawing on patent publication US6956040B2, “Oxazolidinone piperazinyl derivatives as potential antimicrobials” (Ranbaxy Laboratories Limited, priority 2001, dated 2005), this text covers MIC for eleven molecules.

≈ marks a conversion by molar mass, not a printed value.

Holding throughout (assay): MIC, agar incorporation method
One assay has as its system S. pneum 6303. In kind it is cell-based, Streptococcus pneumoniae. The conditions noted are these: S. pneum 6303; agar incorporation. From the text:
(§1) The compounds of the invention display antibacterial activity when tested by the agar incorporation method. The following minimum inhibitory concentrations (μg/ml) were obtained for representative compounds of the invention which are given below in the following tables.
(§2) • 1) S.aureus ATCC 25923—Staphylococus aureus ATCC 25923 • 2) MRSA 15187—Methicillin Resistant Staphylococcus aureus • 3) Ent. faecalis ATCC 29212—Enterococcus faecalis ATCC 29212 • 4) Ent. faecium 6A—Enterococcus faecium 6A Van®, Cipro® • 5) Strep. pne. ATCC 6303—Streptococcus pneumoniae ATCC 6303 • 6) Strep. pyog. ATCC 19615—Streptococcus pyogenes • 7) S. epidermidis—Staphylococcus epidermidis ATCC 12228
(§3) Briefly, the compounds were dissolved in DMSO and doubling dilution of the compounds were incorporated into Meuller Hilton agar before solidification. Inoculum was prepared by suspending 4 to 5 colonies into 5 ml of normal saline solution and adjusting the turbidity to 0.5 Macfarland turbidity standard tables (1.5×10^8 CFU/ml), after appropriate dilutions, 10^4 CFU/spot was transfered into the surface of dried plate and incubated for 18 hours (24 hours for MRSN studies). The concentration showing no growth of the inoculated culture was recorded as the MIC. Appropriate ATCC standard strains were simultaneously tested and result recorded only when the MIC's against standard antibiotics were within the acceptable range.

For the next assay, the system named is S. pneum AB 34. In kind it is cell-based, Streptococcus pneumoniae. The conditions noted are these: S. pneum AB 34; agar incorporation. The method, then:
as §1, §3

The test system of another assay is VRE 6A. Type of assay: cell-based, Enterococcus faecium. The conditions noted are these: VRE 6A; agar incorporation.
Excerpt: as §1, §2, §3

For the next assay, the system named is MRSA 15187. In kind it is cell-based, Staphylococcus aureus. The conditions noted are these: MRSA 15187; agar incorporation.
Excerpt: as §1, §2, §3

A further assay relates to S. aureus 25923. Type of assay: cell-based, Staphylococcus aureus. The conditions noted are these: S. aureus 25923; agar incorporation.
Excerpt: as §1, §2, §3

The test system of a further assay is MRSA 33. In kind it is cell-based, Staphylococcus aureus. The conditions noted are these: MRSA 33; agar incorporation. The method, then:
as §1, §3

Another assay has as its system E. faecalis 29212. Type of assay: cell-based, Enterococcus faecalis. The conditions noted are these: E. faecalis 29212; agar incorporation.
Excerpt: as §1, §2, §3

The subject of a further assay is S. pyogenes 19615. Type of assay: cell-based, Streptococcus pyogenes. The conditions noted are these: S. pyogenes 19615; agar incorporation.
Excerpt: as §1, §2, §3

The MIC is the lowest concentration that inhibits growth of the organism. On to `CC(=O)NC[C@H]1CN(c2ccc(N3CCN(C(=O)c4ccco4)CC3)c(F)c2)C(=O)O1` [Compound No. 01, (S)-N-[[3-[3-Fluoro-4-[N-1-[4-(2-furoyl)piperazinyl]]-phenyl]-2-oxo-5-oxazolidinyl]methyl]acetamide], for which the MIC with S. pneum 6303 turned out to be 2 µg/mL (≈ 4.65 µM); in the assay with S. pneum AB 34, 1 µg/mL (≈ 2.32 µM); with VRE 6A it was 2 µg/mL (≈ 4.65 µM); in the assay with MRSA 15187, 2 µg/mL (≈ 4.65 µM); with S. aureus 25923, 2 µg/mL (≈ 4.65 µM); against MRSA 33, 4 µg/mL (≈ 9.29 µM). Also, the values for the minimum inhibitory concentration (MIC) in the assay on E. faecalis 29212 and with S. pyogenes 19615 were 2 µg/mL (≈ 4.65 µM) and 1 µg/mL (≈ 2.32 µM), respectively.

In the case of `CC(=O)NC[C@H]1CN(c2ccc(N3CCN(C(=O)c4ccc(CCl)o4)CC3)c(F)c2)C(=O)O1` [Compound No. 05, (S)-N-[[3-Fluoro-4-[N-1[4-(5-chloromethyl-2-furoyl)piperazinyl]phenyl]-2-oxo-5-oxazolidinyl]methyl]acetamide], the MIC against S. pneum 6303 came out at 4 µg/mL (≈ 8.35 µM); against S. pneum AB 34, 4 µg/mL (≈ 8.35 µM); against VRE 6A, 8 µg/mL (≈ 16.7 µM); in the assay with MRSA 15187, 4 µg/mL (≈ 8.35 µM); in the assay on S. aureus 25923 it was 16 µg/mL (≈ 33.4 µM); with MRSA 33, 4 µg/mL (≈ 8.35 µM). Also, the MIC in the assay on E. faecalis 29212 stood at 8 µg/mL (≈ 16.7 µM); against S. pyogenes 19615, 4 µg/mL (≈ 8.35 µM).

Consider `CC(=O)NC[C@H]1CN(c2ccc(N3CCN(Cc4ccc(Cl)s4)CC3)c(F)c2)C(=O)O1` [Compound No. 10, (S)-N[[3-[3-Fluoro-4-[N-1[4-{2-thienyl(5-chloro)methyl}]-piperazinyl]phenyl]2-oxo-5-oxazolidinyl]methyl]acetamide], for which the MIC came out at 4 µg/mL (≈ 8.57 µM) with S. pneum 6303; 8 µg/mL (≈ 17.1 µM) in the assay with S. pneum AB 34; 4 µg/mL (≈ 8.57 µM) against VRE 6A; 4 µg/mL (≈ 8.57 µM) in the assay on MRSA 15187; 8 µg/mL (≈ 17.1 µM) against S. aureus 25923; 4 µg/mL (≈ 8.57 µM) with MRSA 33. For the same molecule, the MIC stood at 8 µg/mL (≈ 17.1 µM) with E. faecalis 29212 and 1 µg/mL (≈ 2.14 µM) against S. pyogenes 19615.

For the molecule `CC(=O)NC[C@H]1CN(c2ccc(N3CCN(Cc4ccc([N+](=O)[O-])o4)CC3)c(F)c2)C(=O)O1.O=C(O)CC(O)(CC(=O)O)C(=O)O` [Compound No. 17], the minimum inhibitory concentration (MIC) against S. pneum 6303 was found to be 2 µg/mL; in the assay on S. pneum AB 34 it was 1 µg/mL; against VRE 6A, 4 µg/mL; against MRSA 15187, 2 µg/mL; against S. aureus 25923, 2 µg/mL; against MRSA 33, 2 µg/mL. The MIC in the assay with E. faecalis 29212 was found to be 2 µg/mL; with S. pyogenes 19615, 1 µg/mL.

Take `CC(=O)NC[C@H]1CN(c2ccc(N3CCN(Cc4ccc([N+](=O)[O-])s4)CC3)c(F)c2)C(=O)O1` [Compound No. 23, (S)-N[[3-[3-Fluoro-4-[N-1[4-{2-thienyl(5-nitro)methyl}]piperazinyl]phenyl]2-oxo-5-oxazolidinyl]methyl]acetamide]: the MIC against S. pneum 6303, in the assay with S. pneum AB 34, in the assay with VRE 6A, with MRSA 15187, with S. aureus 25923 and in the assay with MRSA 33 was 8 µg/mL (≈ 16.8 µM) in each case. The MIC with E. faecalis 29212 is 8 µg/mL (≈ 16.8 µM); with S. pyogenes 19615, 1 µg/mL (≈ 2.09 µM).

In the case of `CC(=O)NC[C@H]1CN(c2ccc(N3CC4C(C3)C4N(C)C(=O)c3ccoc3)c(F)c2)C(=O)O1` (stereo partly drawn) [Compound No. 32, (S)-N-[[3-[3-Fluoro[4-[3-(1α, 5α, 6α)-6-[N-(3-furoyl)-N-methyl]amino]-3-azabicyclo-[3.1.0]hexane]phenyl]-2-oxo-5-oxazolidinyl]methyl]acetamide], the MIC was determined as 4 µg/mL (≈ 8.76 µM) against S. pneum 6303; 4 µg/mL (≈ 8.76 µM) against S. pneum AB 34; 8 µg/mL (≈ 17.5 µM) with VRE 6A; 8 µg/mL (≈ 17.5 µM) in the assay with MRSA 15187; 8 µg/mL (≈ 17.5 µM) against S. aureus 25923; 8 µg/mL (≈ 17.5 µM) with MRSA 33. The MIC in the assay with E. faecalis 29212 came to 8 µg/mL (≈ 17.5 µM); against S. pyogenes 19615, 1 µg/mL (≈ 2.19 µM).

As for `CC(=O)NC[C@H]1CN(c2ccc(N3C[C@@H]4[C@H](C3)[C@H]4N(C)C(=O)c3ccc(Br)o3)c(F)c2)C(=O)O1` [Compound No. 33, (S)-N-[[3-[3-Fluoro[4-[3-(1α,5α,6α)-6-[N-(5-bromo-2-furoyl)-N-methyl]amino]-3-azabicyclo-[3.1.0]hexane]phenyl]-2-oxo-5-oxazolidinyl]methyl]acetamide], the MIC is 8 µg/mL (≈ 14.9 µM) with S. pneum 6303; 4 µg/mL (≈ 7.47 µM) against S. pneum AB 34; 4 µg/mL (≈ 7.47 µM) against VRE 6A; 4 µg/mL (≈ 7.47 µM) with MRSA 15187; 4 µg/mL (≈ 7.47 µM) against S. aureus 25923; 4 µg/mL (≈ 7.47 µM) in the assay on MRSA 33. Further, the MIC against E. faecalis 29212 was 4 µg/mL (≈ 7.47 µM); in the assay on S. pyogenes 19615 it was 0.5 µg/mL (≈ 0.934 µM).

Consider `CC(=O)NC[C@H]1CN(c2ccc(N3CCN(Cc4ccc(C=NO)o4)CC3)c(F)c2)C(=O)O1` [Compound No. 60, (S)-N-[[3-[3-Fluoro-4-[N-1-[4-(2-furyl-(5-aldoxime)methyl}]piperazinyl]phenyl]-2-oxo-5-oxazolidinyl]methyl]acetamide], for which the MIC in the assay on S. pneum 6303 is 8 µg/mL (≈ 17.4 µM); with S. pneum AB 34, 8 µg/mL (≈ 17.4 µM); in the assay with VRE 6A, 16 µg/mL (≈ 34.8 µM); in the assay with MRSA 15187, 2 µg/mL (≈ 4.35 µM); against S. aureus 25923, 2 µg/mL (≈ 4.35 µM); in the assay with MRSA 33, 2 µg/mL (≈ 4.35 µM). The MIC was 8 µg/mL (≈ 17.4 µM) against E. faecalis 29212 and 4 µg/mL (≈ 8.71 µM) with S. pyogenes 19615.

Consider `COC(=O)Cc1ccc(NC(=O)ON=Cc2ccc(CN3CCN(c4ccc(N5C[C@H](CNC(C)=O)OC5=O)cc4F)CC3)o2)cc1` [Compound No. 61], for which the MIC in the assay with S. pneum 6303, in the assay with S. pneum AB 34, against VRE 6A, against MRSA 15187, in the assay on S. aureus 25923 and against MRSA 33 was 8 µg/mL (≈ 12.3 µM) each time. For the same molecule, the MIC against E. faecalis 29212 and in the assay with S. pyogenes 19615 was 8 µg/mL (≈ 12.3 µM) throughout.

Consider `CC(=O)NC[C@H]1CN(c2ccc(N3CC4C(C3)C4N(C)Cc3ccc(C=O)o3)c(F)c2)C(=O)O1` (stereo partly drawn) [Compound No. 72, (S)-N-[[3-[3-Fluoro[4-[3-(1α,5α,6α)-6-[N-(5-formyl-2-furylmethyl)-N-methyl]amino]-3-azabicyclo-[3.1.0]hexane]phenyl]-2-oxo-5-oxazolidinyl]methyl]acetamide], for which the MIC against S. pneum 6303 was 4 µg/mL (≈ 8.5 µM); with S. pneum AB 34 it was 4 µg/mL (≈ 8.5 µM); in the assay with VRE 6A, 8 µg/mL (≈ 17 µM); against MRSA 15187, 4 µg/mL (≈ 8.5 µM); in the assay with S. aureus 25923, 8 µg/mL (≈ 17 µM); with MRSA 33, 4 µg/mL (≈ 8.5 µM). The MIC was determined as 8 µg/mL (≈ 17 µM) against E. faecalis 29212 and 0.25 µg/mL (≈ 0.531 µM) against S. pyogenes 19615.

For the molecule `CC(=O)NC[C@H]1CN(c2ccc(N3CC4C(C3)C4N(C)C(=O)c3ccsc3)c(F)c2)C(=O)O1` (stereo partly drawn) [Compound No. 73, (S)-N-[[3-[3-Fluoro[4-[3-(1α,5α,6α)-6-[N-(3-thienoyl)-N-methyl]amino]-3-azabicyclo-[3.1.0]hexane]phenyl]-2-oxo-5-oxazolidinyl]methyl]acetamide], the MIC against S. pneum 6303 is 4 µg/mL (≈ 8.46 µM); in the assay with S. pneum AB 34, 8 µg/mL (≈ 16.9 µM); with VRE 6A, 8 µg/mL (≈ 16.9 µM); in the assay on MRSA 15187 it was 8 µg/mL (≈ 16.9 µM); against S. aureus 25923 it was 8 µg/mL (≈ 16.9 µM); in the assay on MRSA 33, 8 µg/mL (≈ 16.9 µM). Moreover, the MIC in the assay on E. faecalis 29212 stood at 8 µg/mL (≈ 16.9 µM); against S. pyogenes 19615 it was 1 µg/mL (≈ 2.12 µM).
